Experiment [1] relates to H929 human cancer cell lines. In words: Cellular viability / proliferation (Cell TiterGlo, 72 h). As to conditions: Homo sapiens, NCI-H929, 72 h, read-out: GI50 on cellular proliferation of H929 human cancer cell lines, H929 cells, 72 h, Cell TiterGlo, 10% FBS. The class given is cell-based. Summed up:
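Top dose 50 μM, serially diluted 2-fold, applied one day after seeding (1,000 cells/well, 10% FBS), DMSO below 1%.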

For another experiment, the target named is Mcl-1 (Homo sapiens (Human), UniProt Q07820). In words: TR-FRET binding assay, FITC-Bak peptide and MBP-tagged Mcl-1. Conditions: read-out: Ki for Inhibition of Mcl-1 by TR-FRET assay. Here is the method: Compounds are diluted in DMSO in a 16-point, semilog serial dilution scheme. […] The plate was mixed and incubated for 3 hours at room temperature. […] TR-FRET signal is plotted and IC50 and Ki values are calculated in the same manner as the fluorescence polarization anisotropy based competition assays.
Chain of Mcl-1 (Q07820 172-327): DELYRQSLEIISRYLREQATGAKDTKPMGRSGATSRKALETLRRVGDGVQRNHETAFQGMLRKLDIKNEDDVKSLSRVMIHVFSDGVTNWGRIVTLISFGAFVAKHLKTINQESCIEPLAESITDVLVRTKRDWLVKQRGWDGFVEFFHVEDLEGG
In general terms: Time-resolved FRET reads energy transfer from a long-lived donor to a nearby acceptor.

By Ki is commonly meant a measure of affinity in units of concentration, obtained from inhibition or displacement. As to `COCCCn1c(C(=O)O)cc2cc(C)cc(N3C[C@@H](C)n4c(c(CCCOc5cc(C)c(Cl)c(C)c5)c5ccc(Cl)c(-c6c(C)nn(C)c6C)c54)C3=O)c21` [Example 686, (R)-7-(7-chloro-10-(3-(4-chloro-3,5-dimethylphenoxy)propyl)-4-methyl-1-oxo-6-(1,3,5-trimethyl-1H-pyrazol-4-yl)-3,4-dihydropyrazino[1,2-a]indol-2(1H)-yl)-1-(3-methoxypropyl)-5-methyl-1H-indole-2-carboxylic acid], the GI50 in experiment [1] was found to be 520 nM. Besides, at Mcl-1, the inhibition constant (Ki) is < 0.2 nM.
With `Cc1cc(OCCCc2c3n(c4c(-c5c(C)nn(C)c5C)c(Cl)ccc24)[C@H](C)CN(c2cn(C)c4ccc(-c5nn[nH]n5)nc24)C3=O)cc(C)c1Cl` [Example 687, (R)-7-chloro-10-(3-(4-chloro-3,5-dimethylphenoxy)propyl)-4-methyl-2-(1-methyl-5-(2H-tetrazol-5-yl)-1H-pyrrolo[3,2-b]pyridin-3-yl)-6-(1,3,5-trimethyl-1H-pyrazol-4-yl)-3,4-dihydropyrazino[1,2-a]indol-1(2H)-one], the GI50 in experiment [1] turned out to be 330 nM. Also, the Ki on Mcl-1 was < 0.2 nM.
Turning to `Cc1cc(OCCCc2c3n(c4c(-c5c(C)nn(C)c5C)c(Cl)ccc24)[C@H](C)CN(c2cc(COCc4cscn4)cc4cc(C(=O)O)n(C)c24)C3=O)cc(C)c1Cl` [Example 688, (R)-7-(7-chloro-10-(3-(4-chloro-3,5-dimethylphenoxy)propyl)-4-methyl-1-oxo-6-(1,3,5-trimethyl-1H-pyrazol-4-yl)-3,4-dihydropyrazino[1,2-a]indol-2(1H)-yl)-1-methyl-5-((thiazol-4-ylmethoxy)methyl)-1H-indole-2-carboxylic acid], the GI50 in experiment [1] worked out at 430 nM. In addition, the Ki on Mcl-1 was 0.22 nM.
For `Cc1cc(OCCCc2c3n(c4c(-c5c(C)nn(C)c5C)c(Cl)ccc24)[C@H](C)CN(c2cn(C)c4ccc(-n5ncnn5)cc24)C3=O)cc(C)c1Cl` [Example 689, (R)-7-Chloro-10-(3-(4-chloro-3,5-dimethylphenoxy)propyl)-4-methyl-2-(1-methyl-5-(2H-tetrazol-2-yl)-1H-indol-3-yl)-6-(1,3,5-trimethyl-1H-pyrazol-4-yl)-3,4-dihydropyrazino[1,2-a]indol-1(2H)-one] the same measures were 1700 nM and 2.1 nM.
Take `Cc1cc(OCCCc2c3n(c4c(-c5c(C)nn(C)c5C)c(Cl)ccc24)[C@H](C)CN(c2cn(C[C@@H]4CCCN4C)c4ccc(C(=O)O)cc24)C3=O)cc(C)c1Cl` [Example 690, 3-((R)-7-chloro-10-(3-(4-chloro-3,5-dimethylphenoxy)propyl)-4-methyl-1-oxo-6-(1,3,5-trimethyl-1H-pyrazol-4-yl)-3,4-dihydropyrazino[1,2-a]indol-2(1H)-yl)-1-(((S)-1-methylpyrrolidin-2-yl)methyl)-1H-indole-5-carboxylic acid]: in experiment [1], the GI50 turned out to be 330 nM. Besides, at Mcl-1, the Ki was 0.26 nM.
Regarding `COCc1cc(N2C[C@@H](C)n3c(c(CCCOc4cc(C)c(Cl)c(C)c4)c4ccc(Cl)c(-c5c(C)nn(C)c5C)c43)C2=O)c2c(c1)cc(C(=O)O)n2Cc1ccccn1` [Example 691, (R)-7-(7-chloro-10-(3-(4-chloro-3,5-dimethylphenoxy)propyl)-4-methyl-1-oxo-6-(1,3,5-trimethyl-1H-pyrazol-4-yl)-3,4-dihydropyrazino[1,2-a]indol-2(1H)-yl)-5-(methoxymethyl)-1-(pyridin-2-ylmethyl)-1H-indole-2-carboxylic acid], in experiment [1], the GI50 is < 200 nM. The Ki at Mcl-1 is < 0.2 nM.
As for `Cc1cc(OCCCc2c3n(c4c(-c5c(C)nn(C)c5C)c(Cl)ccc24)[C@H](C)CN(c2cc(COCC4COC4)cc4cc(C(=O)O)n(C)c24)C3=O)cc(C)c1Cl` [Example 692, (R)-7-(7-chloro-10-(3-(4-chloro-3,5-dimethylphenoxy)propyl)-4-methyl-1-oxo-6-(1,3,5-trimethyl-1H-pyrazol-4-yl)-3,4-dihydropyrazino[1,2-a]indol-2(1H)-yl)-1-methyl-5-((oxetan-3-ylmethoxy)methyl)-1H-indole-2-carboxylic acid], the GI50 in experiment [1] was determined as 390 nM. For the same compound, at Mcl-1, the Ki is < 0.2 nM.
The corresponding values for `Cc1cc(OCCCc2c3n(c4c(-c5c(C)nn(C)c5C)c(Cl)ccc24)[C@H](C)CN(c2cc(COCCN4CCOCC4)cc4cc(C(=O)O)n(C)c24)C3=O)cc(C)c1Cl` [Example 693, (R)-7-(7-chloro-10-(3-(4-chloro-3,5-dimethylphenoxy)propyl)-4-methyl-1-oxo-6-(1,3,5-trimethyl-1H-pyrazol-4-yl)-3,4-dihydropyrazino[1,2-a]indol-2(1H)-yl)-1-methyl-5-((2-morpholinoethoxy)methyl)-1H-indole-2-carboxylic acid] are 210 nM and < 0.2 nM.
`Cc1cc(OCCCc2c3n(c4c(-c5c(C)nn(C)c5C)c(Cl)ccc24)[C@H](C)CN(c2cn(C[C@H]4CCCN4C)c4ccc(C(=O)O)cc24)C3=O)cc(C)c1Cl` [Example 694, 3-((R)-7-chloro-10-(3-(4-chloro-3,5-dimethylphenoxy)propyl)-4-methyl-1-oxo-6-(1,3,5-trimethyl-1H-pyrazol-4-yl)-3,4-dihydropyrazino[1,2-a]indol-2(1H)-yl)-1-(((R)-1-methylpyrrolidin-2-yl)methyl)-1H-indole-5-carboxylic acid]: in experiment [1], the GI50 is 320 nM. Also, the inhibition constant (Ki) on Mcl-1 is < 0.2 nM.
Regarding `COCc1cccn2nc(-c3ccc4c(c3)c(N3C[C@@H](C)n5c(c(CCCOc6cc(C)c(Cl)c(C)c6)c6ccc(Cl)c(-c7c(C)nn(C)c7C)c65)C3=O)cn4C)nc12` [Example 695, (R)-7-Chloro-10-(3-(4-chloro-3,5-dimethylphenoxy)propyl)-2-(5-(8-(methoxymethyl)-[1,2,4]triazolo[1,5-a]pyridin-2-yl)-1-methyl-1H-indol-3-yl)-4-methyl-6-(1,3,5-trimethyl-1H-pyrazol-4-yl)-3,4-dihydropyrazino[1,2-a]indol-1(2H)-one], in experiment [1], the GI50 was 280 nM. In addition, on Mcl-1, the Ki was determined as 0.57 nM.
Turning to `Cc1cc(OCCCc2c3n(c4c(-c5c(C)nn(C)c5C)c(Cl)ccc24)[C@H](C)CN(c2cn(C)c4ccc(-c5nc6cccc(C)n6n5)cc24)C3=O)cc(C)c1Cl` [Example 696, (R)-7-Chloro-10-(3-(4-chloro-3,5-dimethylphenoxy)propyl)-4-methyl-2-(1-methyl-5-(5-methyl-[1,2,4]triazolo[1,5-a]pyridin-2-yl)-1H-indol-3-yl)-6-(1,3,5-trimethyl-1H-pyrazol-4-yl)-3,4-dihydropyrazino[1,2-a]indol-1(2H)-one], the GI50 in experiment [1] worked out at 1400 nM. For the same compound, the Ki at Mcl-1 was found to be 1.1 nM.
For `Cc1cc(OCCCc2c3n(c4c(-c5c(C)nn(C)c5C)c(Cl)ccc24)[C@H](C)CN(c2cc(C(=O)O)cc4cc(C(=O)O)n(C)c24)C3=O)cc(C)c1Cl` [Example 697, (R)-7-(7-chloro-10-(3-(4-chloro-3,5-dimethylphenoxy)propyl)-4-methyl-1-oxo-6-(1,3,5-trimethyl-1H-pyrazol-4-yl)-3,4-dihydropyrazino[1,2-a]indol-2(1H)-yl)-1-methyl-1H-indole-2,5-dicarboxylic acid], the GI50 in experiment [1] is 2000 nM. The Ki at Mcl-1 was < 0.2 nM.

These data come from patent US11596639B2, “Substituted indole Mcl-1 inhibitors” (Vanderbilt University, priority 2016, dated 2023).
